Measurements published in US11878965B2, “Inhibitors of peptidylarginine deiminases” (Gilead Sciences, Inc., priority 2020, dated 2024).

Target: human PAD4 (Homo sapiens (Human), UniProt Q9UM07)
Experiment: In Vitro PAD4 BAEE Biochemical Assay
Conditions: geometric mean of multiple experiments
Summary of the method: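 Recombinant human PAD4 (His-SUMO tag removed, E. coli-expressed), 5 nM, preincubated with compound and 2 mM CaCl2 30 min at 25 °C in MOPS pH 7.6 with DTT; 3 mM BAEE added for 2 h at 25 °C, EDTA stop. Released ammonia detected by o-phthalaldehyde/DTT fluorescence (ex 405, em 535 nm).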

[1] = human PAD4, BAEE substrate, 5 nM PAD4, 2 mM calcium chloride, 3 mM BAEE

human PAD4, sequence (Q9UM07 2-663): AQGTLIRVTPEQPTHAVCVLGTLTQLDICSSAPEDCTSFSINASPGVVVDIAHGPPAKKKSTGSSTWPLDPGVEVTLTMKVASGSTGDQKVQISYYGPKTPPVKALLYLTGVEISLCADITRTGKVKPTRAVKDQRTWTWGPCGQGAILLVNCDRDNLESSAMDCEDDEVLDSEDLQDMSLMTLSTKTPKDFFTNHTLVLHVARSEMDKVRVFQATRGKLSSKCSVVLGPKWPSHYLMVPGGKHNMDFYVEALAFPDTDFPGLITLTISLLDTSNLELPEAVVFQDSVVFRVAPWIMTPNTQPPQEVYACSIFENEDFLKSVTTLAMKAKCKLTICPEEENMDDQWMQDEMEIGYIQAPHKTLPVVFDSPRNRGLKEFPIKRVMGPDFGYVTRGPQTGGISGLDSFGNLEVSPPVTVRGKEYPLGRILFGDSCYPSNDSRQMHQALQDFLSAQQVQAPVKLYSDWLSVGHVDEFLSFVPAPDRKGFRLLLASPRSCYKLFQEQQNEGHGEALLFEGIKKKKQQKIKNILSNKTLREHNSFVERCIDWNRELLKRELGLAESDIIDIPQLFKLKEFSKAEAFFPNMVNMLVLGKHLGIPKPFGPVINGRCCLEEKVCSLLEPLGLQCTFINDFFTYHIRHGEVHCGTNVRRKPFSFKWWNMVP

Row | IC50 [1] | IC50 (recombinant PAD4 5 nM, 2 mM calcium chloride, 3 mM BAEE substrate) | SMILES
1 | 64.2 nM | – | COc1cc(C(=O)N2C[C@H](N)CCN2C)cc2nc(-c3cc4ccc([C@@H](C)NC(=O)C5(C)CC5)nc4n3CC3CC3)n(C)c12 [Example 200, N-((R)-1-(2-(5-((R)-5-amino-2-methylhexahydropyridazine-1-carbonyl)-7-methoxy-1-methyl-1H-benzo[d]imidazol-2-yl)-1-(cyclopropylmethyl)-1H-pyrrolo[2,3-b]pyridin-6-yl)ethyl)-1-methylcyclopropane-1-carboxamide]
2 | 67.7 nM | – | COc1cc(C(=O)N2C[C@H](N)CCN2C)cc2nc(-c3cc4ccc([C@@H](C)NC(=O)c5cccnc5)nc4n3CC3CC3)n(C)c12 [Example 201, N-((R)-1-(2-(5-((R)-5-amino-2-methylhexahydropyridazine-1-carbonyl)-7-methoxy-1-methyl-1H-benzo[d]imidazol-2-yl)-1-(cyclopropylmethyl)-1H-pyrrolo[2,3-b]pyridin-6-yl)ethyl)nicotinamide]
3 | 199 nM | – | COc1cc(C(=O)N2C[C@H](N)CCN2C)cc2nc(-c3cc4ccc(C(C)(C)NC(=O)c5ccccc5)nc4n3CC3CC3)n(C)c12 [Example 209]
4 | 129 nM | – | COc1cc(C(=O)N2C[C@H](N)CCN2C)cc2nc(-c3cc4ccc([C@@H](C)NC(=O)c5c(F)cccc5F)nc4n3CC3CC3)n(C)c12 [Example 210, N-((R)-1-(2-(5-((R)-5-amino-2-methylhexahydropyridazine-1-carbonyl)-7-methoxy-1-methyl-1H-benzo[d]imidazol-2-yl)-1-(cyclopropylmethyl)-1H-pyrrolo[2,3-b]pyridin-6-yl)ethyl)-2,6-difluorobenzamide]
5 | 170 nM | – | COc1cc(C(=O)N2C[C@H](N)CCN2C)cc2nc(-c3cc4ccc([C@@H](C)NC(=O)c5cccc(F)c5C)nc4n3CC3CC3)n(C)c12 [Example 212, N-((R)-1-(2-(5-((R)-5-amino-2-methylhexahydropyridazine-1-carbonyl)-7-methoxy-1-methyl-1H-benzo[d]imidazol-2-yl)-1-(cyclopropylmethyl)-1H-pyrrolo[2,3-b]pyridin-6-yl)ethyl)-3-fluoro-2-methylbenzamide]
6 | 134 nM | – | COc1cc(C(=O)N2C[C@H](N)CCN2C)cc2nc(-c3cc4ccc([C@@H](C)NC(=O)c5cc(F)cc(F)c5C)nc4n3CC3CC3)n(C)c12 [Example 213, N-((R)-1-(2-(5-((R)-5-amino-2-methylhexahydropyridazine-1-carbonyl)-7-methoxy-1-methyl-1H-benzo[d]imidazol-2-yl)-1-(cyclopropylmethyl)-1H-pyrrolo[2,3-b]pyridin-6-yl)ethyl)-3,5-difluoro-2-methylbenzamide]
7 | 100 nM | – | COc1cc(C(=O)N2C[C@H](N)CCN2C)cc2nc(-c3cc4ccc([C@@H](C)NC(=O)c5ccc(C)nc5C)nc4n3CC3CC3)n(C)c12 [Example 214, N-((R)-1-(2-(5-((R)-5-amino-2-methylhexahydropyridazine-1-carbonyl)-7-methoxy-1-methyl-1H-benzo[d]imidazol-2-yl)-1-(cyclopropylmethyl)-1H-pyrrolo[2,3-b]pyridin-6-yl)ethyl)-2,6-dimethylnicotinamide]
8 | 111 nM | – | COc1cc(C(=O)N2C[C@H](N)CCN2C)cc2nc(-c3cc4ccc([C@@H](C)NC(=O)C5(CCF)CC5)nc4n3CC3CC3)n(C)c12 [Example 215, N-((R)-1-(2-(5-((R)-5-amino-2-methylhexahydropyridazine-1-carbonyl)-7-methoxy-1-methyl-1H-benzo[d]imidazol-2-yl)-1-(cyclopropylmethyl)-1H-pyrrolo[2,3-b]pyridin-6-yl)ethyl)-1-(2-fluoroethyl)cyclopropane-1-carboxamide]
9 | 158 nM | – | C[C@@H](NC(=O)C(C)(C)C)c1ccc2cc(-c3nc4cc(C(=O)N[C@H]5CNCC[C@@H]5F)c(F)cc4n3C)n(CC3CC3)c2n1 [Example 216, 2-(1-(cyclopropylmethyl)-6-((R)-1-pivalamidoethyl)-1H-pyrrolo[2,3-b]pyridin-2-yl)-6-fluoro-N-((3S,4S)-4-fluoropiperidin-3-yl)-1-methyl-1H-benzo[d]imidazole-5-carboxamide]
10 | – | 78.6 nM | C[C@@H](NC(=O)C12CC(F)(C1)C2)c1ccc2cc(-c3nc4cc(C(=O)N5C[C@H](N)[C@@H]6CC[C@H]5C6)cc(F)c4n3C3CC3)n(CC3CC3)c2n1 [Example 219, N-((R)-1-(2-(5-((1S,4R,5R)-4-amino-2-azabicyclo[3.2.1]octane-2-carbonyl)-1-cyclopropyl-7-fluoro-1H-benzo[d]imidazol-2-yl)-1-(cyclopropylmethyl)-1H-pyrrolo[2,3-b]pyridin-6-yl)ethyl)-3-fluorobicyclo[1.1.1]pentane-1-carboxamide]
11 | 54.9 nM | – | COc1cc(C(=O)N2C[C@H](N)[C@@H]3CC[C@H]2C3)cc2nc(-c3cc4ccc([C@@H](C)NC(=O)[C@H]5CC5(F)F)nc4n3CC3CC3)n(C)c12 [Example 220, (R)-N-((R)-1-(2-(5-((1S,4R,5R)-4-amino-2-azabicyclo[3.2.1]octane-2-carbonyl)-7-methoxy-1-methyl-1H-benzo[d]imidazol-2-yl)-1-(cyclopropylmethyl)-1H-pyrrolo[2,3-b]pyridin-6-yl)ethyl)-2,2-difluorocyclopropane-1-carboxamide]
12 | 61 nM | – | COc1cc(C(=O)N2C[C@H](N)[C@@H]3CC[C@H]2C3)cc2nc(-c3cc4ccc([C@@H](C)NC(=O)C(C)(C)C)nc4n3CC3CC3)n(C)c12 [Example 221, N-((R)-1-(2-(5-((1S,4R,5R)-4-amino-2-azabicyclo[3.2.1]octane-2-carbonyl)-7-methoxy-1-methyl-1H-benzo[d]imidazol-2-yl)-1-(cyclopropylmethyl)-1H-pyrrolo[2,3-b]pyridin-6-yl)ethyl)pivalamide]

Row | SMILES | IC50 [1] | IC50 (recombinant PAD4 5 nM, 2 mM calcium chloride, 3 mM BAEE substrate)
13 | COc1cc(C(=O)N2[C@H]3CC[C@@H]2[C@H](N)C3)cc2nc(-c3cc4ccc([C@@H](C)NC(=O)[C@@H]5CC5(F)F)nc4n3CC3CC3)n(C)c12 [Example 202, (S)-N-((R)-1-(2-(5-((1R,2R,4S)-2-amino-7-azabicyclo[2.2.1]heptane-7-carbonyl)-7-methoxy-1-methyl-1H-benzo[d]imidazol-2-yl)-1-(cyclopropylmethyl)-1H-pyrrolo[2,3-b]pyridin-6-yl)ethyl)-2,2-difluorocyclopropane-1-carboxamide] | 58.7 nM | –
14 | COc1cc(C(=O)N2[C@H]3CC[C@@H]2[C@H](N)C3)cc2nc(-c3cc4ccc([C@@H](C)NC(=O)c5ccccc5C(F)F)nc4n3CC3CC3)n(C)c12 [Example 203, N-((R)-1-(2-(5-((1R,2R,4S)-2-amino-7-azabicyclo[2.2.1]heptane-7-carbonyl)-7-methoxy-1-methyl-1H-benzo[d]imidazol-2-yl)-1-(cyclopropylmethyl)-1H-pyrrolo[2,3-b]pyridin-6-yl)ethyl)-2-(difluoromethyl)benzamide] | 155 nM | –
15 | COc1cc(C(=O)N2[C@H]3CC[C@@H]2[C@H](N)C3)cc2nc(-c3cc4ccc([C@@H](C)NC(=O)C5CC(F)(F)C5)nc4n3CC3CC3)n(C)c12 [Example 204, N-((R)-1-(2-(5-((1R,2R,4S)-2-amino-7-azabicyclo[2.2.1]heptane-7-carbonyl)-7-methoxy-1-methyl-1H-benzo[d]imidazol-2-yl)-1-(cyclopropylmethyl)-1H-pyrrolo[2,3-b]pyridin-6-yl)ethyl)-3,3-difluorocyclobutane-1-carboxamide] | 47.4 nM | –
16 | COc1cc(C(=O)N2[C@H]3CC[C@@H]2[C@H](N)C3)cc2nc(-c3cc4ccc([C@@H](C)NC(=O)c5cnn(C(F)F)c5)nc4n3CC3CC3)n(C)c12 [Example 205, N-((R)-1-(2-(5-((1R,2R,4S)-2-amino-7-azabicyclo[2.2.1]heptane-7-carbonyl)-7-methoxy-1-methyl-1H-benzo[d]imidazol-2-yl)-1-(cyclopropylmethyl)-1H-pyrrolo[2,3-b]pyridin-6-yl)ethyl)-1-(difluoromethyl)-1H-pyrazole-4-carboxamide] | 79.7 nM | –
17 | COc1cc(C(=O)N2[C@H]3CC[C@@H]2[C@H](N)C3)cc2nc(-c3cc4ccc([C@@H](C)NC(=O)c5cnn(C)c5)nc4n3CC3CC3)n(C)c12 [Example 206, N-((R)-1-(2-(5-((1R,2R,4S)-2-amino-7-azabicyclo[2.2.1]heptane-7-carbonyl)-7-methoxy-1-methyl-1H-benzo[d]imidazol-2-yl)-1-(cyclopropylmethyl)-1H-pyrrolo[2,3-b]pyridin-6-yl)ethyl)-1-methyl-1H-pyrazole-4-carboxamide] | 45.5 nM | –
18 | COc1cc(C(=O)N2[C@H]3CC[C@@H]2[C@H](N)C3)cc2nc(-c3cc4ccc([C@@H](C)NC(=O)C5(C(F)(F)F)CC5)nc4n3CC3CC3)n(C)c12 [Example 207, N-((R)-1-(2-(5-((1R,2R,4S)-2-amino-7-azabicyclo[2.2.1]heptane-7-carbonyl)-7-methoxy-1-methyl-1H-benzo[d]imidazol-2-yl)-1-(cyclopropylmethyl)-1H-pyrrolo[2,3-b]pyridin-6-yl)ethyl)-1-(trifluoromethyl)cyclopropane-1-carboxamide] | 240 nM | –
19 | COc1cc(C(=O)N2[C@H]3CC[C@@H]2[C@H](N)C3)cc2nc(-c3cc4ccc([C@@H](C)NC(=O)c5ccc(F)cc5)nc4n3CC3CC3)n(C)c12 [Example 208, N-((R)-1-(2-(5-((1R,2R,4S)-2-amino-7-azabicyclo[2.2.1]heptane-7-carbonyl)-7-methoxy-1-methyl-1H-benzo[d]imidazol-2-yl)-1-(cyclopropylmethyl)-1H-pyrrolo[2,3-b]pyridin-6-yl)ethyl)-4-fluorobenzamide] | 138 nM | –
20 | COc1cc(C(=O)N2[C@H]3CC[C@@H]2[C@H](N)C3)cc2nc(-c3cc4ccc([C@@H](C)NC(=O)C(C)n5cccn5)nc4n3CC3CC3)n(C)c12 (stereo partly drawn) [Example 211, N-((R)-1-(2-(5-((1R,2R,4S)-2-amino-7-azabicyclo[2.2.1]heptane-7-carbonyl)-7-methoxy-1-methyl-1H-benzo[d]imidazol-2-yl)-1-(cyclopropylmethyl)-1H-pyrrolo[2,3-b]pyridin-6-yl)ethyl)-2-(1H-pyrazol-1-yl)propanamide] | 92 nM | –
